Test results from a melting point compilation (Tetko et al.; mined from patent text by program, amines drawn as free bases though some values may be those of a salt).

SMILES | melting point
OC(COc1ccc(-c2ccc(I)cc2)cc1)CN1CCCC1 (stereo unspecified) | 123 to 124 °C
CCC(OC)c1ccc(Cl)c2nc3n(c12)CCCN3c1ccc(Cl)cc1Cl (stereo unspecified) | 136 to 137 °C
Cc1cccc(C)c1Sc1nc[nH]n1 | 126 to 127 °C
C=CCOc1nc(SC)nc(N2CCc3ccccc3CC2)c1C#N | 103 to 105 °C
CC1(CBr)OC(C(Br)(Br)Br)OC1=O (stereo unspecified) | 110 to 113 °C
CCOC(=O)c1cc(-n2c(=O)[nH]c3c(c2=O)CCC3)ccc1[N+](=O)[O-] | 205 to 208 °C
CC(C)n1c(=O)c2c(-c3nc(C4CC4)no3)ncn2c2cccnc21 | 221 to 223 °C
COC(=O)CCCCCS(=O)c1ccc(-c2ccc(Cl)cc2)cc1 (stereo unspecified) | 64 to 65 °C
CC(C)N(C(=O)c1ccc(OCCCCCOc2ccc(C(N)=NO)cc2)cc1O)C(C)C | 195 to 197 °C
COc1c(F)c(F)c(N)c2c(=O)c(C(=O)O)cn(Cc3ccccc3)c12 | 208 to 210 °C
CCOC(=O)Cc1sc(Sc2cc(C(F)(F)F)ccn2)nc1C | 57 to 59 °C
O=C(O)Cc1cc(C(=O)c2cccc(F)c2)ccc1O | 171 °C
O=S(=O)(CC=Cc1ccccc1)CCCOC1CCCCO1 (stereo unspecified) | 45 °C
CCN1Cc2ccccc2C(=O)c2cc(CC(=O)O)ccc21 | 141 to 144 °C
CN(C)c1ccc(NC(=O)N(Cc2ccco2)C[C@H]2CCCC[C@H]2CN(Cc2ccco2)C(=O)Nc2ccc(N(C)C)cc2)cc1 | 106 to 110 °C
Cc1cc2nc(-c3cccnc3N)n(-c3ccc(CC(=O)Nc4ccc5ncccc5c4)cc3)c2nc1-c1cccnc1 | 176 to 178 °C
COC(=O)CCc1cc(C(C)(C)C)c(O[Si](C)(C)Oc2c(C(C)(C)C)cc(CCC(=O)OC)cc2C(C)(C)C)c(C(C)(C)C)c1 | 122 to 129 °C
Cc1nc(N2CCN(Cc3ccc(F)cc3)C2=O)sc1C(=O)NCc1ccc(F)cc1 | 177 to 178 °C
COc1ccc(C2(C#N)CCC(=O)CC2)c2c1OC(C)(C)O2 | 153 to 154 °C
Cc1ccc(S(=O)(=O)Oc2ccc(S(=O)(=O)Cc3cccnn3)cc2)cc1 | 161 °C
CCOC(=O)CN1CCC2(CC1)CC(c1ccc(C#N)cc1)=NO2 | 116 to 118 °C
O=C(O)CC1CCCc2c(n(Cc3ccc(-n4ccnc4)cc3)c3ccc(F)cc23)C1 (stereo unspecified) | 237 °C
CCCCC#CCCOc1cc(C=O)ccc1OC | 42 to 43 °C
O=C(O)c1cc(O)c(C(=O)c2ccccc2)c([N+](=O)[O-])c1 | 264 to 266 °C

SMILES | melting point
CCOC(=O)CN1C(=O)c2cccc3c(Sc4ccccc4)ccc(c23)C1=O | 132 to 134 °C
CC(C)(C)OC(=O)NCC12CN(c3c(F)cc4c(=O)c(C(=O)O)cn(C5CC5)c4c3Cl)CC1CCO2 (stereo unspecified) | 111 to 113 °C
CN(C)CCCC1(O)c2ccccc2CCc2c(C3(C)OCCO3)cccc21 (stereo unspecified) | 122 to 124 °C
Cc1cc2n(n1)-c1ccc(Cl)cc1C(c1ccccc1)=NC2 | 105 to 107 °C
O=C(O)Cc1ccc(OCCNC(=O)C2Cc3ccccc3N2S(=O)(=O)c2ccc(-c3cc(C(F)(F)F)ccc3Cl)cc2)c(Cl)c1 (stereo unspecified) | 108 to 112 °C
CCNc1nc(C(C)C)nc(Cl)c1[N+](=O)[O-] | 50 °C
O=C(Nc1cccc(O)c1)NC1N=C(c2ccccc2F)c2ccccc2N(CC(=O)N2CC3CCC(CC3)C2)C1=O (racemic) | 184 to 185 °C
O=c1cc(-c2ccc3nccnc3c2)oc2ncccc12 | 272 to 275 °C
COc1ccc(-c2ccc(=O)[nH]n2)c(OCC(O)CNC(C)(C)C)c1 (stereo unspecified) | 159 to 161 °C
Cc1c(Cl)c(OCC(=O)O)c(Cc2ccc3c(Cl)cccc3c2)c(O)c1C=O | 194 to 196 °C
Cc1ccc2c(Sc3cc(Cl)cc(Cl)c3)c(CCC(N)=O)[nH]c2c1 | 152 °C
COC(=O)C1CCC2C3CCC4=CC(O)CCC4(C)C3C(=O)CC12C (stereo unspecified) | 121 to 125 °C
CC(C)C(Oc1ccccc1)C(=O)OC1CC(O)C=C2C=CC(C)C(CCC3CC(O)CC(=O)O3)C21 (mixture of isomers) | 143 to 145 °C
CCc1c(Cc2cc(C)cc(C)c2)n(COCCCCO)c(=O)[nH]c1=O | 101 to 103 °C
OCCCCCCCCCCCc1ccc(O)c(O)c1 | 92 to 93 °C
O=C1CCC2(N1)C1C=CC(C1)C2c1ccccc1 (stereo unspecified) | 152 to 155 °C
COC(=O)c1ccccc1NC(=S)c1ccc(OC)nc1 | 133 to 140 °C
CC(C)(C)OC(=O)NCCCCNC(=O)Cc1ccc2ccccc2c1 | 102 °C
CC(C)=CCN1CCc2c(sc(N)c2C(=O)c2ccc(Br)cc2)C1 | 73 to 75 °C
CC(C)(C)OC(=O)N[C@H]1CCC(=O)C1 | 97 to 98 °C
COC(=O)C1(N(OC2CCCO2)C(=O)Cc2c(C)cc(C)cc2C)CCN(OC)CC1 (stereo unspecified) | 107 to 109 °C
CCCC(=O)c1cnc2c(CO)cccc2c1Nc1ccccc1C | 148 to 150 °C
CCOC(=O)N1CCN(c2nc(NC3CC3)ccc2[N+](=O)[O-])CC1 | 100 to 103 °C
COc1cc(OC)cc(-c2nc[nH]c2-c2ccc(OC)c(O)c2F)c1 | 126 to 128 °C

SMILES | melting point
O=C(O)C1CC1c1cc(=O)c2cc(-c3ccccc3)ccc2o1 (stereo unspecified) | 226 to 228 °C
O=C(O)c1csnc1-c1cc(S)cc(Cl)c1 | 150 to 160 °C
CCN1CCc2ccc(Nc3ncc(Cl)c(NC4CCCCNC4=O)n3)cc2CC1 (stereo unspecified) | 232 to 234 °C
CCCCCCCCCCCCC1N(C)c2cccc3cccc(c23)N1C | 30 to 32 °C
COC(=O)c1cccc(Oc2ccnc(Cl)c2)n1 | 89 °C
CCOC(=O)NCC(=O)NNC1=NC(C)C(c2ccccc2)=NN1 (stereo unspecified) | 144 to 146 °C
CS(=O)(=O)c1ccc(Nc2cc(N3CCOCC3)nc(-c3ccccc3)n2)cc1 | 238 to 240 °C
CCN(c1cccc2cc(-c3ncc(COc4ccc(C(=O)O)cc4)s3)[nH]c12)S(=O)(=O)c1cccs1 | 188 °C
O=C(O)C=CCNCS(=O)(=O)c1ccc([N+](=O)[O-])cc1[N+](=O)[O-] | 174 °C
O=c1[nH]c2cc([N+](=O)[O-])c(S(=O)(=O)c3cccc4cnccc34)cc2o1 | > 270 °C
O=C(Cl)N1CC(Oc2ccc(Br)cc2)C1 | 77 to 78 °C
CSc1ccc(CC(=O)C(=O)O)cc1 | 165 to 167 °C
CCCN1C(=O)CN(c2ccccc2)C1=O | 97 °C
Cn1cnc2c1c(=O)n(CCCBr)c(=O)n2C | 142 to 144 °C
Cc1ccc(Oc2ccc(-c3ccn(CC4CC4)c(=O)c3Cl)cc2F)c(C)n1 | 143 °C
COC(=O)CCc1cc2nc(Cl)ccc2n1S(=O)(=O)c1ccc2nc(N)sc2c1 | 205 to 215 °C
COC(=O)c1cc(-c2ccc(S(C)(=O)=O)cc2)n(C2CCCCC2)n1 | 108 °C
COC(=O)c1ccc(N2CCCC2)c(NC(=O)C(CSC(C)=O)Cc2ccccc2)c1 (stereo unspecified) | 72 to 75 °C
O=C(NCCCc1ccncc1)N(CCCC(F)(F)F)CCC12CC3CC(CC(C3)C1)C2 | 143 to 145 °C
CON=C(C)c1cccc(NC(=O)NCC(=O)N(C)c2ccc(Cl)c(COc3cccc4ccc(C)nc34)c2Cl)c1 | 218 to 224 °C
N#CC1=C(c2cccs2)Nc2n[nH]cc2C1c1cccc2nonc12 (stereo unspecified) | 230 °C
COc1cc(C(=O)N2Cc3ccc(C(=O)NCc4ccc5c(c4)OCO5)n3Cc3ccccc32)ccc1-c1ccccc1C | 167 to 168 °C
C[C@@]1(CN2CCN(C(=O)OCc3ccc(F)cc3)CC2)Cn2cc([N+](=O)[O-])nc2O1 | 167 to 169 °C
Cc1nc2cc(S(=O)(=O)n3c(COC(C)(C)C(=O)O)cc4cc(Cl)ccc43)ccc2s1 | 134 to 136 °C

SMILES | melting point
CCCCCCCCC1C=CC(/C=C/c2ccc(C(=O)O)o2)=C2N=C3CCCCC3=C21 (stereo unspecified) | 128 to 131 °C
Cc1ccc(S(=O)(=O)OCCCCCCn2c3c(c4ccccc4c2=O)C(=O)c2ccccc2-3)cc1 | 146 to 149 °C
CC(C)CC(=O)Nc1cccc(-c2ccnc3c(Br)cnn23)c1 | 132 to 134 °C
CN[C@@H]1CN(c2cc3c(cc2F)c(=O)c(C(=O)O)cn3C(C)(C)C)[C@H]1C (relative stereo) | 194 to 195 °C
CC(C)CCOc1cccc2oc(C(=O)O)cc(=O)c12 | 179 to 180 °C
CC(=O)Oc1ccc2c(c1)CC=C1C2CCC2(C)C=CCC12 (stereo unspecified) | 77 to 80 °C
C=CCCN1C(C)=C(C(=O)OC)C(c2ccccc2)C(C(=O)OC)=C1C | 108 to 110 °C
O=Cc1nn(-c2ccc(O)cc2)c2c1CCCC2Cc1cccc2ccccc12 (stereo unspecified) | > 260 °C
FC(F)(F)c1ccc2c(C3CCN(CCCOc4cccc5[nH]ccc45)CC3)c[nH]c2c1 | 92 to 97 °C
CC(C)c1ccc(C2COc3ccc(Br)cc32)cc1 (stereo unspecified) | 90 to 91 °C
COC(=O)COc1ccc(O)c(C(C)(C)C)c1 | 87 to 89 °C
CCCCCCCCCCCCCCCC(=O)OCC(F)(F)Cn1nc(C)c(-c2ccc3c(c2)NC(=O)CO3)c1-c1ccc(F)cc1 | 106 °C
CCCN(CCC)C(=O)C(CO)Nc1nc(-c2ccccc2)nc2c1CCCC2 (stereo unspecified) | 119 to 120 °C
FS(F)(F)(F)(F)c1ccc(/C=C/c2nc(COc3ccc(-c4nc(Cn5ccnn5)co4)cc3)co2)cc1 | 172 to 174 °C
COC(=O)C(Cc1cc(OC)cc(C(F)(F)F)c1)NC(=O)c1ccccc1 (stereo unspecified) | 133 °C
CC(=O)Nc1cccc2c1C(C#N)C2 (stereo unspecified) | < 50 °C
CCOC(=O)CC(C(=O)c1ccc(OC)cc1)c1ccc(OC)c(F)c1 (stereo unspecified) | 117 to 118 °C
O=C(O)c1cn(C2CC2)c2nc(Cl)c(F)cc2c1=O | 209 to 212 °C
CCCCCCCCCCCCCCCCCCCCOC(=O)Nc1ccc(NC(=O)NS(=O)(=O)c2ccc3ccccc3c2)cc1 | 181 °C
COc1ccc(-c2[nH]nc3c2C(=O)c2c(NC(=O)NN(C)C)cccc2-3)cc1 | > 300 °C
c1ccc(-c2cnn3cc(-c4ccc(CCCN5CCOCC5)cc4)cnc23)cc1 | 147 to 149 °C
O=C(O)c1cccc(Oc2ccc(C(F)(F)F)c(Cl)c2)c1 | 90 to 91 °C
COc1cc(/C=C/C(=O)CC(=O)Cc2ccccc2)ccc1O | 106 °C
CSc1ncc(Cc2ccc(Cl)cc2)c(=O)[nH]1 | 193 to 194 °C
